From the NIST ThermoML archive (doi:10.1016/j.jct.2015.11.023)
± gives the expanded uncertainty stated by the source.

Key:
[1] = wn = mass fraction of the nth substance listed; conditions: for surface tension liquid-gas: Maximal bubble pressure; for mass density: 100 kPa, Liquid, Vibrating tube method
[2] = refractive index (Na D-line) (dimensionless); wn = mass fraction of the nth substance listed; conditions: 100 kPa, Liquid, Standard Abbe refractometry

Compound `CCCC[n+]1ccccc1.N#C[N-]C#N` [1-butylpyridinium dicyanamide] + O has a surface tension liquid-gas ([1]; 303.15 K, w2 = 0.00176) of 55.8 ± 0.5 mN/m, a surface tension liquid-gas ([1]; 303.15 K, w2 = 0.0033) of 56.2 ± 0.5 mN/m and a surface tension liquid-gas ([1]; 303.15 K, w2 = 0.00478) of 56.5 ± 0.5 mN/m. The surface tension liquid-gas ([1]; 303.15 K, w2 = 0.00628) was 56.8 ± 0.5 mN/m, the surface tension liquid-gas ([1]; 303.15 K, w2 = 0.0078) was 57.1 ± 0.5 mN/m and the mass density ([1]; 303.15 K, w2 = 0.00123) was 1065.65 ± 2 kg/m3. The mass density ([1]; 303.15 K, w2 = 0.00269) was 1065.52 ± 2 kg/m3, the mass density ([1]; 303.15 K, w2 = 0.00417) was 1065.37 ± 2 kg/m3 and the mass density ([1]; 303.15 K, w2 = 0.00567) was 1065.24 ± 2 kg/m3. For the same compound, the mass density ([1]; 303.15 K, w2 = 0.00714) was 1065.12 ± 2 kg/m3, the surface tension liquid-gas ([1]; 308.15 K, w2 = 0.00176) was 55.5 ± 0.5 mN/m and the surface tension liquid-gas ([1]; 308.15 K, w2 = 0.0033) was 55.9 ± 0.5 mN/m. It also gave a surface tension liquid-gas ([1]; 308.15 K, w2 = 0.00478) of 56.2 ± 0.5 mN/m, a surface tension liquid-gas ([1]; 308.15 K, w2 = 0.00628) of 56.5 ± 0.5 mN/m and a surface tension liquid-gas ([1]; 308.15 K, w2 = 0.0078) of 56.8 ± 0.5 mN/m. It also gave a mass density ([1]; 308.15 K, w2 = 0.00123) of 1062.58 ± 2 kg/m3, a mass density ([1]; 308.15 K, w2 = 0.00269) of 1062.45 ± 2 kg/m3 and a mass density ([1]; 308.15 K, w2 = 0.00417) of 1062.32 ± 2 kg/m3. It also gave a mass density ([1]; 308.15 K, w2 = 0.00567) of 1062.16 ± 2 kg/m3, a mass density ([1]; 308.15 K, w2 = 0.00714) of 1062.04 ± 2 kg/m3 and a surface tension liquid-gas ([1]; 313.15 K, w2 = 0.00176) of 55.2 ± 0.5 mN/m. The surface tension liquid-gas ([1]; 313.15 K, w2 = 0.0033) was 55.6 ± 0.5 mN/m, the surface tension liquid-gas ([1]; 313.15 K, w2 = 0.00478) was 55.9 ± 0.5 mN/m and the surface tension liquid-gas ([1]; 313.15 K, w2 = 0.00628) was 56.2 ± 0.5 mN/m. The surface tension liquid-gas ([1]; 313.15 K, w2 = 0.0078) was 56.5 ± 0.5 mN/m, the mass density ([1]; 313.15 K, w2 = 0.00123) was 1059.54 ± 2 kg/m3 and the mass density ([1]; 313.15 K, w2 = 0.00269) was 1059.41 ± 2 kg/m3. For the same compound, the mass density ([1]; 313.15 K, w2 = 0.00417) was 1059.23 ± 2 kg/m3, the mass density ([1]; 313.15 K, w2 = 0.00567) was 1059.11 ± 2 kg/m3 and the mass density ([1]; 313.15 K, w2 = 0.00714) was 1058.97 ± 2 kg/m3. It also gave a surface tension liquid-gas ([1]; 318.15 K, w2 = 0.00176) of 54.9 ± 0.5 mN/m, a surface tension liquid-gas ([1]; 318.15 K, w2 = 0.0033) of 55.2 ± 0.5 mN/m and a surface tension liquid-gas ([1]; 318.15 K, w2 = 0.00478) of 55.5 ± 0.5 mN/m. For the same compound, the surface tension liquid-gas ([1]; 318.15 K, w2 = 0.00628) was 55.8 ± 0.5 mN/m, the surface tension liquid-gas ([1]; 318.15 K, w2 = 0.0078) was 56.2 ± 0.5 mN/m and the mass density ([1]; 318.15 K, w2 = 0.00123) was 1056.51 ± 2 kg/m3. It also gave a mass density ([1]; 318.15 K, w2 = 0.00269) of 1056.38 ± 2 kg/m3, a mass density ([1]; 318.15 K, w2 = 0.00417) of 1056.24 ± 2 kg/m3 and a mass density ([1]; 318.15 K, w2 = 0.00567) of 1056.07 ± 2 kg/m3. For the same compound, the mass density ([1]; 318.15 K, w2 = 0.00714) was 1055.94 ± 2 kg/m3, the surface tension liquid-gas ([1]; 323.15 K, w2 = 0.00176) was 54.6 ± 0.5 mN/m and the surface tension liquid-gas ([1]; 323.15 K, w2 = 0.0033) was 54.9 ± 0.5 mN/m. The surface tension liquid-gas ([1]; 323.15 K, w2 = 0.00478) was 55.2 ± 0.5 mN/m, the surface tension liquid-gas ([1]; 323.15 K, w2 = 0.00628) was 55.5 ± 0.5 mN/m and the surface tension liquid-gas ([1]; 323.15 K, w2 = 0.0078) was 55.8 ± 0.5 mN/m. The mass density ([1]; 323.15 K, w2 = 0.00123) was 1053.5 ± 2 kg/m3, the mass density ([1]; 323.15 K, w2 = 0.00269) was 1053.36 ± 2 kg/m3 and the mass density ([1]; 323.15 K, w2 = 0.00417) was 1053.23 ± 2 kg/m3. It also gave a mass density ([1]; 323.15 K, w2 = 0.00567) of 1053.04 ± 2 kg/m3, a mass density ([1]; 323.15 K, w2 = 0.00714) of 1052.91 ± 2 kg/m3 and a surface tension liquid-gas ([1]; 328.15 K, w2 = 0.00176) of 54.3 ± 0.5 mN/m. The surface tension liquid-gas ([1]; 328.15 K, w2 = 0.0033) was 54.6 ± 0.5 mN/m, the surface tension liquid-gas ([1]; 328.15 K, w2 = 0.00478) was 54.9 ± 0.5 mN/m and the surface tension liquid-gas ([1]; 328.15 K, w2 = 0.00628) was 55.2 ± 0.5 mN/m. It also gave a surface tension liquid-gas ([1]; 328.15 K, w2 = 0.0078) of 55.5 ± 0.5 mN/m, a mass density ([1]; 328.15 K, w2 = 0.00123) of 1050.5 ± 2 kg/m3 and a mass density ([1]; 328.15 K, w2 = 0.00269) of 1050.36 ± 2 kg/m3. For the same compound, the mass density ([1]; 328.15 K, w2 = 0.00417) was 1050.22 ± 2 kg/m3, the mass density ([1]; 328.15 K, w2 = 0.00567) was 1050.05 ± 2 kg/m3 and the mass density ([1]; 328.15 K, w2 = 0.00714) was 1049.92 ± 2 kg/m3. It also gave a surface tension liquid-gas ([1]; 333.15 K, w2 = 0.00176) of 54 ± 0.5 mN/m, a surface tension liquid-gas ([1]; 333.15 K, w2 = 0.0033) of 54.3 ± 0.5 mN/m and a surface tension liquid-gas ([1]; 333.15 K, w2 = 0.00478) of 54.6 ± 0.5 mN/m. It also gave a surface tension liquid-gas ([1]; 333.15 K, w2 = 0.00628) of 54.9 ± 0.5 mN/m, a surface tension liquid-gas ([1]; 333.15 K, w2 = 0.0078) of 55.2 ± 0.5 mN/m and a mass density ([1]; 333.15 K, w2 = 0.00123) of 1047.53 ± 2 kg/m3. It also gave a mass density ([1]; 333.15 K, w2 = 0.00269) of 1047.4 ± 2 kg/m3, a mass density ([1]; 333.15 K, w2 = 0.00417) of 1047.21 ± 2 kg/m3 and a mass density ([1]; 333.15 K, w2 = 0.00567) of 1047.07 ± 2 kg/m3. The mass density ([1]; 333.15 K, w2 = 0.00714) was 1046.94 ± 2 kg/m3, the surface tension liquid-gas ([1]; 338.15 K, w2 = 0.00176) was 53.7 ± 0.5 mN/m and the surface tension liquid-gas ([1]; 338.15 K, w2 = 0.0033) was 54 ± 0.5 mN/m. The surface tension liquid-gas ([1]; 338.15 K, w2 = 0.00478) was 54.3 ± 0.5 mN/m, the surface tension liquid-gas ([1]; 338.15 K, w2 = 0.00628) was 54.5 ± 0.5 mN/m and the surface tension liquid-gas ([1]; 338.15 K, w2 = 0.0078) was 54.8 ± 0.5 mN/m. For the same compound, the mass density ([1]; 338.15 K, w2 = 0.00123) was 1044.55 ± 2 kg/m3, the mass density ([1]; 338.15 K, w2 = 0.00269) was 1044.42 ± 2 kg/m3 and the mass density ([1]; 338.15 K, w2 = 0.00417) was 1044.27 ± 2 kg/m3. The mass density ([1]; 338.15 K, w2 = 0.00567) was 1044.09 ± 2 kg/m3, the mass density ([1]; 338.15 K, w2 = 0.00714) was 1043.94 ± 2 kg/m3 and the refractive index ([2]; 303.15 K, w2 = 0.00176) was 1.5323 ± 0.003. For the same compound, the refractive index ([2]; 303.15 K, w2 = 0.00319) was 1.5321 ± 0.003, the refractive index ([2]; 303.15 K, w2 = 0.00477) was 1.5319 ± 0.003 and the refractive index ([2]; 303.15 K, w2 = 0.00627) was 1.5317 ± 0.003. The refractive index ([2]; 303.15 K, w2 = 0.0078) was 1.5315 ± 0.003, the refractive index ([2]; 308.15 K, w2 = 0.00176) was 1.5306 ± 0.003 and the refractive index ([2]; 308.15 K, w2 = 0.00319) was 1.5303 ± 0.003. It also gave a refractive index ([2]; 308.15 K, w2 = 0.00477) of 1.5301 ± 0.003, a refractive index ([2]; 308.15 K, w2 = 0.00627) of 1.5298 ± 0.003 and a refractive index ([2]; 308.15 K, w2 = 0.0078) of 1.5296 ± 0.003. The refractive index ([2]; 313.15 K, w2 = 0.00176) was 1.5283 ± 0.003, the refractive index ([2]; 313.15 K, w2 = 0.00319) was 1.5281 ± 0.003 and the refractive index ([2]; 313.15 K, w2 = 0.00477) was 1.5279 ± 0.003. The refractive index ([2]; 313.15 K, w2 = 0.00627) was 1.5277 ± 0.003, the refractive index ([2]; 313.15 K, w2 = 0.0078) was 1.5275 ± 0.003 and the refractive index ([2]; 318.15 K, w2 = 0.00176) was 1.5267 ± 0.003. For the same compound, the refractive index ([2]; 318.15 K, w2 = 0.00319) was 1.5265 ± 0.003, the refractive index ([2]; 318.15 K, w2 = 0.00477) was 1.5262 ± 0.003 and the refractive index ([2]; 318.15 K, w2 = 0.00627) was 1.526 ± 0.003. For the same compound, the refractive index ([2]; 318.15 K, w2 = 0.0078) was 1.5258 ± 0.003, the refractive index ([2]; 323.15 K, w2 = 0.00176) was 1.525 ± 0.003 and the refractive index ([2]; 323.15 K, w2 = 0.00319) was 1.5248 ± 0.003. The refractive index ([2]; 323.15 K, w2 = 0.00477) was 1.5245 ± 0.003, the refractive index ([2]; 323.15 K, w2 = 0.00627) was 1.5243 ± 0.003 and the refractive index ([2]; 323.15 K, w2 = 0.0078) was 1.5241 ± 0.003. It also gave a refractive index ([2]; 328.15 K, w2 = 0.00176) of 1.5234 ± 0.003, a refractive index ([2]; 328.15 K, w2 = 0.00319) of 1.5232 ± 0.003 and a refractive index ([2]; 328.15 K, w2 = 0.00477) of 1.523 ± 0.003. For the same compound, the refractive index ([2]; 328.15 K, w2 = 0.00627) was 1.5227 ± 0.003, the refractive index ([2]; 328.15 K, w2 = 0.0078) was 1.5225 ± 0.003 and the refractive index ([2]; 333.15 K, w2 = 0.00176) was 1.5214 ± 0.003. For the same compound, the refractive index ([2]; 333.15 K, w2 = 0.00319) was 1.5212 ± 0.003, the refractive index ([2]; 333.15 K, w2 = 0.00477) was 1.5209 ± 0.003 and the refractive index ([2]; 333.15 K, w2 = 0.00627) was 1.5207 ± 0.003. It also gave a refractive index ([2]; 333.15 K, w2 = 0.0078) of 1.5204 ± 0.003, a refractive index ([2]; 338.15 K, w2 = 0.00176) of 1.5199 ± 0.003 and a refractive index ([2]; 338.15 K, w2 = 0.00319) of 1.5197 ± 0.003. The refractive index ([2]; 338.15 K, w2 = 0.00477) was 1.5194 ± 0.003, the refractive index ([2]; 338.15 K, w2 = 0.00627) was 1.5192 ± 0.003 and the refractive index ([2]; 338.15 K, w2 = 0.0078) was 1.5189 ± 0.003.
